Test results published in US6346278B1, “Lipid extract having anti-inflammatory activity” (Pharmalink International Limited, priority 1995, dated 2002).

Assays:
[1] = test system: collagen (II)-induced auto-allergic arthritis; assay: Collagen (II)-induced auto-allergic arthritis; details: for Rear paw inflammation Day 2 / Rear paw inflammation Day 4: paw inflamed by collagen (II) injection; for Percent Inhibitions Front paw inflam. / Percent Inhibitions Left rear paw / Percent Inhibitions Right rear paw: day 14
Method: Collagen (Type II) induced polyarthritis was induced in female Wistar rats by injection of collagen (II) with a non-arthritogenic adjuvant to sensitise the test animals.
PCO was given orally after dilution into olive oil (8 mg/ml) and administered at 2.5 ml/kg/day to give 20 mg/kg.
Prophylactic treatment was from day 1 to day 13 (i.e. total […]) orally (p.o.). […] PCO was diluted into olive oil (6 mg/ml) for p.o. dosing at 2.5 ml/kg/day to give 15 mg/kg, and diluted into olive oil-cineole (17.3 v/v) (10 mg/ml) for t.d. administration at 2 ml/kg/day to give 20 mg/kg.
Seatone™ was administered p.o. at 300 mg/kg; Nurofen™ was administered p.o. at 50 mg/kg; Na Aurothiomalate (ATM) was administered in 8 doses at 6.3 mg/kg subcutaneously (s.c.).

[2] = test system: Kaolin-induced paw oedema; assay: Kaolin-induced paw oedema; format: in vivo, rat; details: 150 mg/kg p.o., without synergist
Method: Kaolin-induced paw oedema was investigated as a possible assay for PCO since this inflammation is slower developing than that induced with carrageenin (which recedes after three hours). The protocol involves injecting 5 mg kaolin, suspended in water (not saline, in which it aggregates), into each rear paw 40 minutes after dosing the rats with PCO given both p.o. or i.p. as dispersions prepared with 0.02% Tween in either water (p.o.) or saline (i.p.). The paw swelling was then read two hours and five hours after the kaolin injection.

arthritic rats = assay: Anti-arthritic assay: adjuvant-induced polyarthritis, treatment days 10-13; format: in vivo; details: for % Reduction in Inflammation: rear paw thickness day 14 vs control
Source text: Though more time consuming, this assay is of more value than the acute assay (described above) as it detects not only (i) those anti-inflammatory drugs acting in the acute assay (but often at lower ED50 values) but also (ii) other agents e.g. clobuzarit (CIoZic^R) or lobenzarit (CCA), which obviously have unique arthritis-suppressant properties but are not anti-oedemic/antipyretic or otherwise detectable in acute assays.
The protocol used is to pre-establish disease by injecting the arthritigen on Day 0, look for first signs of paw inflammation (usually manifest on Days 10-12) and then dose the animals with test materials for four days. Over this period, the paw inflammation in the untreated control animals “blooms” rapidly to reach a near maximum on Day 14. Drugs acting over this time-frame to hold down the paw swelling are certainly anti-symptomatic but rarely disease-ablating. On ceasing treatment, there is usually a recrudescence in symptoms. This however is a positive feature of this assay as it clearly indicates a) the drug has a finite action but gives some idea of its duration of efficacy by the rapidity (or otherwise) of the rebound; and b) the animals with minimal signs of disease on Day 14 reflected a positive drug effect rather than failure to respond to the original arthritigen (i.e. false negatives). An accurate description of this assay is “late prophylaxis”. Obviously by delaying treatment until after Day 14, one can look for “therapeutic activity”, but since changes may be slow or negligible within four days (even with some powerful NSAIDs), collection of adequate data is difficult.
Details of the protocol used are: inject the arthritigen into the tailbase of female Wistar rats (160-200 gm)=800 mcg heat-killed Mycobact tuberculosis suspended in 0.1 ml squalane in such a fashion as to avoid any blood vessels and to promote optimal drainage into the lymphatics. Ten days later, the animals were weighed, the thickness of the rear paws and tail was measured and signs of inflammation in the forepaws scored on a scale of 0 to 4 +. After dosing with test compounds once daily for four days (i.e. on Days 10 through 13 post-arthritigen), these measurements were repeated on Days 14 and 18 (i.e. after completion of treatment and again after four days rebound) to monitor the arthritis development. […]
Rats with the first signs of arthritis 10 days after inoculating with mycobacterial arthritogen were then treated orally with the test materials for 4 days only. Effectiveness of the test materials was measured as […] rear paw thickness on day 14 when compared to the control group H.

stomach = assay: Gastro-toxicity assay; format: in vivo, rat
Method: Gastro toxicity studies were carried out on female Wistar rats with established arthritis initiated with collagen (type II), not on drug therapy. Aspirin and PCO were suspended with 0.04% Tween-20 for oral dosing, after fasting animals overnight. […]

Carrageenin paw oedema = assay: Acute carrageenin paw oedema assay; format: in vivo, rat; details: for % Inhibition Oedema 1 hr / % Inhibition Oedema 2 hr: 30 mg/kg
Method: Female Wistar rats (180-220 gm) were pre-dosed p.o. or i.p. with test formulations. 40 minutes later they were injected in each rear paw with 0.1 ml saline containing 0.6 mg Na carrageenin. The subsequent paw oedema was quantified by measuring the increase in paw thickness after one and two hours with a screw gauge micrometer. […] [The oedema recedes after three hours with this dose of carrageenin.]

[3] = 6.3 mg/kg s.c. in saline x8, every second day
[4] = 6.3 mg/kg s.c. x8, every second day
[5] = 50 mg/kg p.o. x15, prophylactic
[6] = 50 mg/kg p.o. x15, prophylactic day 1 to day 13
[7] = with MPL (Misoprostal 0.5 mg/kg p.o.)

O=C([O-])CC([S-])C(=O)[O-].[Au+].[Na+].[Na+] (stereo not shown) [ATM, sodium aurothiomalate]
Rear paw inflammation Day 2 [1, 3]: 1.00 mm | Rear paw inflammation Day 4 [1, 3]: 0.68 mm | Day 14: Signs arthritis Front paw inflam. [1, 4]: 1.3+ | Day 14: Signs arthritis Left rear paw [1, 4]: 0.47 mm | Day 14: Signs arthritis Right rear paw [1, 4]: 0.70 mm | Percent Inhibitions rear paw inflammation Day 2 [1, 4]: 29% | Percent Inhibitions rear paw inflammation Day 4 [1, 4]: 46% | Percent Inhibitions Front paw inflam. [1, 4]: 41% | Percent Inhibitions Left rear paw [1, 4]: 76% | Percent Inhibitions Right rear paw [1, 4]: 60% | ΔWt(0-14) ([1]; 6.3 mg/kg s.c. x8, weight gain may be misleading (possible incipient kidney damage)): (+24) gm | toxic dose ([1]; s.c. in saline every second day, higher doses were toxic): > 6.3 mg/kg

CC(=O)Oc1ccccc1C(=O)O [Aspirin]
% Inhibition Oedema 2 HR ([2]; 2 HR): 55% | % Inhibition Oedema 5 HR ([2]; 5 HR): 51% | effective dose in the standard anti-arthritic assay (arthritic rats; adjuvant-induced rat polyarthritis): 300 mg/kg | effect on the stomach (in words) (stomach; 300 mg/kg (20 times an effective dose of PCO)): considerable gastric damage | Gastric lesion index (stomach; High arthritis with 0.15 N HCl co-administered orally, oral in 0.04% Tween-20): >112 | Gastric lesion index (stomach; High arthritis, Day 15, oral in 0.04% Tween-20, fasted overnight): 82 | Gastric lesion index (stomach; Low arthritis, Day 32, oral in 0.04% Tween-20, fasted overnight): 41 | ED50 (Carrageenin paw oedema; Rattus norvegicus, acute carrageenin assay): ~150 mg/kg

COc1ccc2c(c1)c(CC(=O)O)c(C)n2C(=O)c1ccc(Cl)cc1 [Indomethacin, indomethacin]
% Reduction in Inflammation (arthritic rats; 1 mg/kg orally for 4 days): 26% | % Reduction in Inflammation (arthritic rats; 3 mg/kg orally for 4 days): 68% | % Reduction in Inflammation (arthritic rats; 5 mg/kg orally for 4 days): 83%

CC(C)Cc1ccc(C(C)C(=O)O)cc1 (stereo not shown) [Nurofen, ibuprofen]
% Inhibition Front paw ([1]; 40 mg/kg, days 8-14): 72% | % Inhibition Rear L. paw ([1]; 40 mg/kg, days 8-14): 54% | % Inhibition Rear R. paw ([1]; 40 mg/kg, days 8-14): 07% | Mean Differences Days 8-15 Ft. Paw Inflam. ([1]; 40 mg/kg, days 8-14): 0.7 + | Mean Differences Days 8-15 Rear R. Paw ([1]; 40 mg/kg, days 8-14): 1.48 mm | Mean Differences Days 8-15 ΔWt ([1]; 40 mg/kg, days 8-14): +15 gm | Mean Differences Days 8-15 Rear L. Paw ([1]; 40 mg/kg, days 8-14 (7 daily doses), therapeutic): 0.82 mm | Day 14: Signs arthritis Front paw inflam. [1, 5]: 2.5+ | Day 14: Signs arthritis Left rear paw [1, 5]: 1.35 mm | Day 14: Signs arthritis Right rear paw [1, 5]: 1.72 mm | Percent Inhibitions rear paw inflammation Day 2 [1, 5]: (−05) % | Percent Inhibitions rear paw inflammation Day 4 [1, 5]: (−20) % | ΔWt(0-14) [1, 5]: +12 gm | Rear paw inflammation Day 2 [1, 6]: 1.48 mm | Rear paw inflammation Day 4 [1, 6]: 1.52 mm | Percent Inhibitions Front paw inflam. [1, 5]: (−14) % | Percent Inhibitions Left rear paw [1, 5]: 32% | Percent Inhibitions Right rear paw [1, 5]: 02% | Differences Days 15-18 (Rebound) Front paw ([1]; after 40 mg/kg, days 8-14): 1.1+ | Differences Days 15-18 (Rebound) Rear L. paw ([1]; after 40 mg/kg, days 8-14): 0.38 | Differences Days 15-18 (Rebound) Rear R. paw ([1]; after 40 mg/kg, days 8-14): 0.38 | Differences Days 15-18 (Rebound) ΔWt. ([1]; after 40 mg/kg, days 8-14): +05 | % Inhibition Oedema 1 hr (Carrageenin paw oedema; [7]): 56% | % Inhibition Oedema 2 hr (Carrageenin paw oedema; [7]): 58% | % Inhibition Oedema 1 hr (Carrageenin paw oedema; without MPL): 37% | % Inhibition Oedema 2 hr (Carrageenin paw oedema; without MPL): 42%
